Source: US20260294933A1, “USE OF COMPOUND IN PREVENTION OR TREATMENT OF RADIATION-INDUCED BRAIN INJURY” (GUANGZHOU CELLPROTEK PHARMACEUTICAL CO., LTD, priority 2023, published 2026)
Entries after “also recorded” stand apart in the source; their conditions may differ.

Assays:
MAG = MAG immunofluorescence intensity in the thalamus of the lesion; assay type: in vivo, C57BL/6 mice
Description: (§1) Pannel A: Immunofluorescence staining of CC1 and MAG in the thalamus of the brain lesion, with a white ruler indicating […]. Pannel B: Counting CC1 positive cells in Pannel A, i.e., randomly selecting three fields of view in the brain slice injury lesion area and using Image J software to count CC1 positive cells in the selected fields as the number of CC1 positive cells per unit area, and taking the average value. Pannel C: Statistical analysis of MAG immunofluorescence intensity in Pannel A, i.e., randomly selecting three fields of view in the brain slice injury lesion area and using Image J software to quantify the fluorescence signal intensity of MAG in the selected fields as the fluorescence intensity of MAG per unit pixel area, and taking the average value. **** represents P<0.0001, n=5.
(§2) The coordinates of the irradiation center positioning point were: 2 mm behind the anterior fontanelle (AP), 2 mm left of the midline (L), and 2 mm below the skull dura mater (dorsal ventral DV).
(§3) Immunofluorescence Staining of GFAP, CC1, and MAG Proteins in Brain Slices

[1] = tested on: gamma knife irradiation induced focal radiation-induced brain injury (brain lesions); assay: Brain lesion volume by MRI, gamma knife irradiation induced focal radiation-induced brain injury in C57BL/6 mice; assay type: in vivo
Procedure: as §2
Quantitative Analysis of Brain Lesion Volume Using Magnetic Resonance imaging (MRI)
Prior to detection, each mouse was injected with 200 μl of contrast agent solution at a concentration of approximately 48 mg/ml.

GFAP positive astrocytes = assay: GFAP immunofluorescence staining, activation of astrocytes in the thalamus of the lesion; assay type: in vivo, C57BL/6 mice
Description: FIG. 3: YC-6 inhibited the activation of astrocytes after radiation-induced brain injury. Pannel A: GFAP immunofluorescence staining in the thalamus of the brain lesion, with a white ruler indicating […]. Pannel B: Counting GFAP positive cells in Pannel A, i.e., randomly selecting three fields of view in the brain slice injury lesion area and using Image J software to count GFAP positive cells in the selected fields as the number of GFAP positive cells per unit area, and taking the average value. **** represents P<0.0001, n=5.
as §2, §3

[2] = tested on: CC1 positive oligodendrocytes; assay: CC1 immunofluorescence staining, mature oligodendrocytes in the thalamus of the lesion; assay type: in vivo, C57BL/6 mice
Description: as §1, §2, §3

[3] = tested on: radiation-induced brain injury; conditions: patients treated with bevacizumab; cited from earlier work
[4] = tested on: blood-brain barrier and microvessels; conditions: animals; cited from earlier work
[5] = YC-6 administration for 8 weeks

In the case of `C[C@@]12CCCC1C1C[C@@H](O)[C@@]3(O)C[C@@H](O)CC[C@]3(C)C1CC2` (stereo partly drawn) [YC-6, 5α-androst-3β,5,6β-triol], the “MAG fluorescence signal intensity” value (MAG; 60 mg/kg/d for 8 weeks, 8 weeks after gamma knife radiation, Mean ± SEM, n=5, P < 0.0001 vs RBI + Saline (0.31 ± 0.018), Control + Saline 1.04 ± 0.047) is reported as 0.44 ± 0.018, the “MAG level (in words)” value (MAG; [5]) is reported as “restored MAG level” and the “volume of brain lesions (in words)” value ([1]; 60 mg/kg/d for 2 weeks, followed by discontinuation until week 8) is reported as “significantly reduced the volume of brain lesions; also recorded: significantly reducing lesion volume”. For the same molecule, the “volume of brain lesions (in words)” value ([1]; full 8-week administration, compared to 2-week administration) was “showed a trend towards further reducing the volume of brain lesions; also recorded: showed a better trend in reducing lesion volume compared to short-term administration”, the “Number of astrocytes (GFAP positive)” value (GFAP positive astrocytes; 60 mg/kg/d for 8 weeks, 8 weeks after gamma knife radiation, Mean ± SEM, n=5, P < 0.0001 vs RBI + Saline (558.20 ± 10.07), Control + Saline 57.80 ± 2.69) was 357.00 ± 10.61 Astrocytes/mm^2 and the “activation of astrocytes (in words)” value (GFAP positive astrocytes; [5]) was “significantly inhibited the activation of astrocytes”. The “Number of mature oligodendrocytes (CC1 positive)” value ([2]; 60 mg/kg/d for 8 weeks, 8 weeks after gamma knife radiation, Mean ± SEM, n=5, P < 0.0001 vs RBI + Saline (200.60 ± 21.47), Control + Saline 1608.00 ± 47.92) was 506.40 ± 30.48 Oligodendrocytes/mm^2 and the “reduction of oligodendrocytes (in words)” value [2, 5] was “significantly inhibited the reduction of oligodendrocytes”.

In the case of “bevacizumab: bevacizumab, used in a randomized double-blind placebo-controlled study in 2011”, the neurological function [3] is given as “significant improvement in neurological function” and the “reduction in brain injury lesions” value [3] is given as “varying degrees of reduction in brain injury lesions”.

B1: mouse nerve growth factor for injection: mouse nerve growth factor for injection (protein, UniProt P01139 122-241, looked up)
Beta-nerve growth factor: SSTHPVFHMGEFSVCDSVSVWVGDKTTATDIKGKEVTVLAEVNINNSVFRQYFFETKCRASNPVESGCRGIDSKHWNSYCTTTHTFVKALTTDEKQAAWRFIRIDTACVCVLSRKATRRG
For B1, the “damage to the blood-brain barrier and repair of microvessels” value [4] is given as “can alleviate damage to the blood-brain barrier and repair microvessels in animals”.
